Measurements as given in patent US6838019B2, “Phosphorescent material and electroluminescent device using thereof” (Ritek Corporation, priority 2001, dated 2005).

Experiment: Solubility test in organic solvents
Format: physicochemical
Parameters: key: X: not dissolved; ◯: partially dissolved; ⊚: completely dissolved
Conditions: 1 mg, room temperature (20 degrees Celsius); for Solubility in methylcyclohexane: methyl cyclohexane
Description: 1 mg of Tb(TMHD)3—DMSO, Tb(TMHD)3—MPSO, Tb(TMHD)3—DPSO, Tb(TMHD)3, Tb(TMHD)3—OPNP are each dissolved under room temperature (20 degrees Celsius) in the following organic solvent: dichlormethane, acetonitrile, toluene, ethyl acetate, hexane, methyl cyclohexane methanol, methy ethyl ketone ether.

Molecule | Solubility in acetonitrile | Solubility in dichloromethane | Solubility in ether | Solubility in ethyl acetate | Solubility in hexane | Solubility in methanol | Solubility in methylcyclohexane | Solubility in methyl ethyl ketone | Solubility in toluene
CC(C)(C)C(=O)[CH-]C(=O)C(C)(C)C.CC(C)(C)C(=O)[CH-]C(=O)C(C)(C)C.CC(C)(C)C(=O)[CH-]C(=O)C(C)(C)C.[Tb+3] [Tb(TMHD)3, tris(2,2,6,6-tetramethyl-3,5-heptanedionato) Terbium(III), reference compound] | X | ◯ | ◯ | X | X | X | X | X | ◯
CC(C)(C)C(=O)C=C([O-])C(C)(C)C.CC(C)(C)C(=O)C=C([O-])C(C)(C)C.CC(C)(C)C(=O)C=C([O-])C(C)(C)C.CS(C)=O.[Tb+3] [Tb(TMHD)3-DMSO, tri(2,2,6,6-tetramethyl-3,5-heptanedionate) Tb(III) dimethyl sulfoxide] | ◯ | ⊚ | ⊚ | ⊚ | ⊚ | ⊚ | ⊚ | ⊚ | ⊚
CC(C)(C)C(=O)C=C([O-])C(C)(C)C.CC(C)(C)C(=O)C=C([O-])C(C)(C)C.CC(C)(C)C(=O)C=C([O-])C(C)(C)C.CS(=O)c1ccccc1.[Tb+3] [Tb(TMHD)3-MPSO, tri(2,2,6,6-tetramethyl-3,5-heptanedionate) Tb(III) methyl phenyl sulfoxide] | ◯ | ⊚ | ⊚ | ⊚ | ⊚ | ⊚ | ⊚ | ⊚ | ⊚

Continued, values first:

Solubility in acetonitrile | Solubility in dichloromethane | Solubility in ether | Solubility in ethyl acetate | Solubility in hexane | Solubility in methanol | Solubility in methylcyclohexane | Solubility in methyl ethyl ketone | Solubility in toluene | Molecule
◯ | ⊚ | ⊚ | ⊚ | ⊚ | ⊚ | ⊚ | ⊚ | ⊚ | CC(C)(C)C(=O)C=C([O-])C(C)(C)C.CC(C)(C)C(=O)C=C([O-])C(C)(C)C.CC(C)(C)C(=O)C=C([O-])C(C)(C)C.O=S(c1ccccc1)c1ccccc1.[Tb+3] [Tb(TMHD)3-DPSO, tri(2,2,6,6-tetramethyl-3,5-heptanedionate) Tb(III) diphenyl sulfoxide]
◯ | ⊚ | ⊚ | ⊚ | ◯ | ◯ | ◯ | ⊚ | ⊚ | Tris(2,2,6,6-tetramethyl-3,5-heptanedionato) Terbium (III) diphenyl phosphonimide tris-phenyl phosphorane [Tb(TMHD)3-OPNP, reference compound]
